According to patent US10906915B2, “Substituted pyrazoloazepin-4-ones and their use as phosphodiesterase inhibitors” (LEO Pharma A/S, priority 2016, dated 2021):

What follows are compounds tested against human PDE4D catalytic domain (UniProt no. Q08499) (Homo sapiens (Human), UniProt Q08499) (assay: PDE4 assay (TR-FRET, FAM-cAMP cleavage)). Settings: human PDE4D catalytic domain; molar concentration giving 50% inhibition of substrate cleavage; read-out: PDE4 IC50 range.
Assay type: biochemical
How it was run: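 PDE4D catalytic domain ([…]) was incubated with unlabelled cAMP plus FAM-cAMP and titrated compound, stopped with binding buffer of metal-ion nanoparticles and Tb donor. AMP generation read by TR-FRET; IC50 as 50% inhibition of cleavage versus controls, reported as nM ranges.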

Sequence of human PDE4D catalytic domain (Q08499 380-740 limits assumed): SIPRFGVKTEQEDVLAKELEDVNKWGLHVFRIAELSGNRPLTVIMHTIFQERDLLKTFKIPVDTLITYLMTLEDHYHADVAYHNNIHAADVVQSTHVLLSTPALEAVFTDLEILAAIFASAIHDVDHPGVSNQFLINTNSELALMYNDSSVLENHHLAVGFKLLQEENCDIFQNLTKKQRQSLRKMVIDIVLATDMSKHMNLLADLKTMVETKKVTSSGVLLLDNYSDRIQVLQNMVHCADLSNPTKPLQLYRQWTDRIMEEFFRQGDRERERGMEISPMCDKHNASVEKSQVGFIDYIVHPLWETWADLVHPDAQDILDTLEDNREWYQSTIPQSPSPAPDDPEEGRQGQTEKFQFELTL

Row | SMILES | IC50 [nM]
1 | CCc1nn(C[C@@H](C)COC(=O)c2cccc(F)c2F)c2c1C(=O)NCC1(CCOCC1)C2 [Example 179, [(2R)-3-(3-ethyl-4-oxo-spiro[6,8-dihydro-5H-pyrazolo[4,3-c]azepine-7,4′-tetrahydropyran]-1-yl)-2-methyl-propyl] 2,3-difluorobenzoate] | < 100
2 | CCc1nn(C[C@@H](C)COC(=O)c2ccc(C(C)=O)cc2)c2c1C(=O)NCC1(CCOCC1)C2 [Example 180, [(2R)-3-(3-ethyl-4-oxo-spiro[6,8-dihydro-5H-pyrazolo[4,3-c]azepine-7,4′-tetrahydropyran]-1-yl)-2-methyl-propyl] 4-acetylbenzoate] | < 100
3 | CCc1nn(C[C@@H](C)COC(=O)c2cccc(C(C)=O)c2)c2c1C(=O)NCC1(CCOCC1)C2 [Example 181, [(2R)-3-(3-ethyl-4-oxo-spiro[6,8-dihydro-5H-pyrazolo[4,3-c]azepine-7,4′-tetrahydropyran]-1-yl)-2-methyl-propyl] 3-acetylbenzoate] | < 100
4 | CCc1nn(C[C@@H](C)COC(=O)c2cc(F)cc(C#N)c2)c2c1C(=O)NCC1(CCOCC1)C2 [Example 182, [(2R)-3-(3-ethyl-4-oxo-spiro[6,8-dihydro-5H-pyrazolo[4,3-c]azepine-7,4′-tetrahydropyran]-1-yl)-2-methyl-propyl] 3-cyano-5-fluoro-benzoate] | < 100
5 | CCc1nn(C[C@@H](C)COC(=O)c2cc(C#N)ccc2F)c2c1C(=O)NCC1(CCOCC1)C2 [Example 183, [(2R)-3-(3-ethyl-4-oxo-spiro[6,8-dihydro-5H-pyrazolo[4,3-c]azepine-7,4′-tetrahydropyran]-1-yl)-2-methyl-propyl] 5-cyano-2-fluoro-benzoate] | < 100
6 | CCc1nn(C[C@@H](C)COC(=O)c2ccc(F)c(C#N)c2)c2c1C(=O)NCC1(CCOCC1)C2 [Example 184, [(2R)-3-(3-ethyl-4-oxo-spiro[6,8-dihydro-5H-pyrazolo[4,3-c]azepine-7,4′-tetrahydropyran]-1-yl)-2-methyl-propyl] 3-cyano-4-fluoro-benzoate] | < 100
7 | CCc1nn(C[C@@H](C)COC(=O)c2ccc(C#N)c(F)c2)c2c1C(=O)NCC1(CCOCC1)C2 [Example 185, [(2R)-3-(3-ethyl-4-oxo-spiro[6,8-dihydro-5H-pyrazolo[4,3-c]azepine-7,4′-tetrahydropyran]-1-yl)-2-methyl-propyl] 4-cyano-3-fluoro-benzoate] | < 100
8 | CCc1nn(C[C@@H](C)COC(=O)c2ccc(OC)c(C)c2)c2c1C(=O)NCC1(CCOCC1)C2 [Example 186, [(2R)-3-(3-ethyl-4-oxo-spiro[6,8-dihydro-5H-pyrazolo[4,3-c]azepine-7,4′-tetrahydropyran]-1-yl)-2-methyl-propyl] 4-methoxy-3-methyl-benzoate] | < 100
9 | CCc1nn(C[C@@H](C)COC(=O)c2ccc(C)cc2OC)c2c1C(=O)NCC1(CCOCC1)C2 [Example 187, [(2R)-3-(3-ethyl-4-oxo-spiro[6,8-dihydro-5H-pyrazolo[4,3-c]azepine-7,4′-tetrahydropyran]-1-yl)-2-methyl-propyl] 2-methoxy-4-methyl-benzoate] | < 100
10 | CCc1nn(C[C@@H](C)COC(=O)c2ccc(OC)c(F)c2)c2c1C(=O)NCC1(CCOCC1)C2 [Example 188, [(2R)-3-(3-ethyl-4-oxo-spiro[6,8-dihydro-5H-pyrazolo[4,3-c]azepine-7,4′-tetrahydropyran]-1-yl)-2-methyl-propyl] 3-fluoro-4-methoxy-benzoate] | < 100
11 | CCc1nn(C[C@@H](C)COC(=O)c2ccc(OC)cc2F)c2c1C(=O)NCC1(CCOCC1)C2 [Example 189, [(2R)-3-(3-ethyl-4-oxo-spiro[6,8-dihydro-5H-pyrazolo[4,3-c]azepine-7,4′-tetrahydropyran]-1-yl)-2-methyl-propyl] 2-fluoro-4-methoxy-benzoate] | < 100
12 | CCc1nn(C[C@@H](C)COC(=O)c2cccc(OC)c2F)c2c1C(=O)NCC1(CCOCC1)C2 [Example 190, [(2R)-3-(3-ethyl-4-oxo-spiro[6,8-dihydro-5H-pyrazolo[4,3-c]azepine-7,4′-tetrahydropyran]-1-yl)-2-methyl-propyl] 2-fluoro-3-methoxy-benzoate] | < 100
13 | CCc1nn(C[C@@H](C)COC(=O)c2cc(OC)ccc2F)c2c1C(=O)NCC1(CCOCC1)C2 [Example 191, [(2R)-3-(3-ethyl-4-oxo-spiro[6,8-dihydro-5H-pyrazolo[4,3-c]azepine-7,4′-tetrahydropyran]-1-yl)-2-methyl-propyl] 2-fluoro-5-methoxy-benzoate] | < 100
14 | CCc1nn(C[C@@H](C)COC(=O)c2cccc(F)c2OC)c2c1C(=O)NCC1(CCOCC1)C2 [Example 192, [(2R)-3-(3-ethyl-4-oxo-spiro[6,8-dihydro-5H-pyrazolo[4,3-c]azepine-7,4′-tetrahydropyran]-1-yl)-2-methyl-propyl] 3-fluoro-2-methoxy-benzoate] | < 100
15 | CCc1nn(C[C@@H](C)COC(=O)c2ccc(F)c(OC)c2)c2c1C(=O)NCC1(CCOCC1)C2 [Example 193, [(2R)-3-(3-ethyl-4-oxo-spiro[6,8-dihydro-5H-pyrazolo[4,3-c]azepine-7,4′-tetrahydropyran]-1-yl)-2-methyl-propyl] 4-fluoro-3-methoxy-benzoate] | < 100
16 | CCc1nn(C[C@@H](C)COC(=O)c2c(F)cccc2OC)c2c1C(=O)NCC1(CCOCC1)C2 [Example 194, [(2R)-3-(3-ethyl-4-oxo-spiro[6,8-dihydro-5H-pyrazolo[4,3-c]azepine-7,4′-tetrahydropyran]-1-yl)-2-methyl-propyl] 2-fluoro-6-methoxy-benzoate] | < 100
17 | CCc1nn(C[C@@H](C)COC(=O)c2ccc(F)cc2OC)c2c1C(=O)NCC1(CCOCC1)C2 [Example 195, [(2R)-3-(3-ethyl-4-oxo-spiro[6,8-dihydro-5H-pyrazolo[4,3-c]azepine-7,4′-tetrahydropyran]-1-yl)-2-methyl-propyl] 4-fluoro-2-methoxy-benzoate] | < 100
18 | CCc1nn(C[C@@H](C)COC(=O)c2ccc(Cl)cc2C)c2c1C(=O)NCC1(CCOCC1)C2 [Example 196, [(2R)-3-(3-ethyl-4-oxo-spiro[6,8-dihydro-5H-pyrazolo[4,3-c]azepine-7,4′-tetrahydropyran]-1-yl)-2-methyl-propyl] 4-chloro-2-methyl-benzoate] | < 100
19 | CCc1nn(C[C@@H](C)COC(=O)c2ccc(C(F)F)cc2)c2c1C(=O)NCC1(CCOCC1)C2 [Example 197, [(2R)-3-(3-ethyl-4-oxo-spiro[6,8-dihydro-5H-pyrazolo[4,3-c]azepine-7,4′-tetrahydropyran]-1-yl)-2-methyl-propyl] 4-(difluoromethyl)benzoate] | < 100
20 | CCc1nn(C[C@@H](C)COC(=O)c2cccc(Cl)c2F)c2c1C(=O)NCC1(CCOCC1)C2 [Example 198, [(2R)-3-(3-ethyl-4-oxo-spiro[6,8-dihydro-5H-pyrazolo[4,3-c]azepine-7,4′-tetrahydropyran]-1-yl)-2-methyl-propyl] 3-chloro-2-fluoro-benzoate] | < 100
21 | CCc1nn(C[C@@H](C)COC(=O)c2ccc(Cl)c(F)c2)c2c1C(=O)NCC1(CCOCC1)C2 [Example 199, [(2R)-3-(3-ethyl-4-oxo-spiro[6,8-dihydro-5H-pyrazolo[4,3-c]azepine-7,4′-tetrahydropyran]-1-yl)-2-methyl-propyl] 4-chloro-3-fluoro-benzoate] | < 100
